Data published in PubChem BioAssay AID1963985 (Molecular Pharmacology Branch, DTP, NCI, 2024).
Several values for one entry are separate records, joined by “and”; a condition that tells them apart may be missing. Equal entries are not always repeated.

System: 252836-082-R-J2-PDC tumor spheroids, viability
Assay: Anticancer human tumor 252836-082-R-J2-PDC patient-derived head and neck squamous cell carcinoma cell line growth inhibition [PI3K]
Details: spheroids with HUVEC and MSC; for viability, T/C: stronger effect = lower value
Procedure, shortened: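 Tumor cells were combined with HUVEC and MSCs into spheroids, then dosed with PI3K-inhibitor combinations over half-log ranges capped near clinical Cmax or 10 microM.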

[1] = curve of first compound, second compound 0.0316 µM
[2] = curve of first compound, second compound 0.1 µM
[3] = curve of first compound, second compound 0.316 µM
[4] = curve of first compound, second compound 1 µM
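Also: spheroids exposed to agents for seven days before readout.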
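For viability, T/C in this document: percent of vehicle DMSO control viability so 100% = untreated growth.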

Compound: Cn1cnc2c(F)c(Nc3ccc(Br)cc3Cl)c(C(=O)NOCCO)cc21 + COc1c(OCCCN2CCOCC2)ccc2c3n(c(=NC(=O)c4cnc(N)nc4)nc12)CCN3
- IC50 (curve of first compound, second compound 0.00316 µM): 2.05 µM
- IC50 (curve of first compound, second compound 0.01 µM): 1.07 µM
- IC50 [1]: 0.0784 µM
- IC50 [2]: < 0.00949 µM
- IC50 [3]: < 0.00949 µM
- IC50 [4]: < 0.00949 µM
- viability, T/C (second compound 0.00316 µM, first compound 0.00949 µM): 91.6%
- viability, T/C (second compound 0.00316 µM, first compound 0.03 µM): 71.5%
- viability, T/C (second compound 0.00316 µM, first compound 0.0949 µM): 82.4%
- viability, T/C (second compound 0.00316 µM, first compound 0.3 µM): 80.4%
- viability, T/C (second compound 0.00316 µM, first compound 0.949 µM): 75.3%
- viability, T/C (second compound 0.00316 µM, first compound 3 µM): 37.5%
- viability, T/C (second compound 0.01 µM, first compound 0.00949 µM): 73.5%
- viability, T/C (second compound 0.01 µM, first compound 0.03 µM): 70.3%
- viability, T/C (second compound 0.01 µM, first compound 0.0949 µM): 76.7%
- viability, T/C (second compound 0.01 µM, first compound 0.3 µM): 65.2%
- viability, T/C (second compound 0.01 µM, first compound 0.949 µM): 52.1%
- viability, T/C (second compound 0.01 µM, first compound 3 µM): 35.5%
- viability, T/C (second compound 0.0316 µM, first compound 0.00949 µM): 59.6%
- viability, T/C (second compound 0.0316 µM, first compound 0.03 µM): 48.8%
- viability, T/C (second compound 0.0316 µM, first compound 0.0949 µM): 49%
- viability, T/C (second compound 0.0316 µM, first compound 0.3 µM): 46.2%
- viability, T/C (second compound 0.0316 µM, first compound 0.949 µM): 34.1%
- viability, T/C (second compound 0.0316 µM, first compound 3 µM): 25.1%
- viability, T/C (second compound 0.1 µM, first compound 0.00949 µM): 31.6%
- viability, T/C (second compound 0.1 µM, first compound 0.03 µM): 33.3%
- viability, T/C (second compound 0.1 µM, first compound 0.0949 µM): 33.1%
- viability, T/C (second compound 0.1 µM, first compound 0.3 µM): 29.5%
- viability, T/C (second compound 0.1 µM, first compound 0.949 µM): 18%
- viability, T/C (second compound 0.1 µM, first compound 3 µM): 7.77%
- viability, T/C (second compound 0.316 µM, first compound 0.00949 µM): 14.8%
- viability, T/C (second compound 0.316 µM, first compound 0.03 µM): 12.2%
- viability, T/C (second compound 0.316 µM, first compound 0.0949 µM): 9.2%
- viability, T/C (second compound 0.316 µM, first compound 0.3 µM): 7.79%
- viability, T/C (second compound 0.316 µM, first compound 0.949 µM): 3.35%
- viability, T/C (second compound 0.316 µM, first compound 3 µM): 0.38%
- viability, T/C (second compound 1 µM, first compound 0.00949 µM): 2.53%
- viability, T/C (second compound 1 µM, first compound 0.03 µM): 2.17%
- viability, T/C (second compound 1 µM, first compound 0.0949 µM): 2.32%
- viability, T/C (second compound 1 µM, first compound 0.3 µM): 0.64%
- viability, T/C (second compound 1 µM, first compound 0.949 µM): 3.69%
- viability, T/C (second compound 1 µM, first compound 3 µM): 0.18%

Compound: CCCS(=O)(=O)Nc1ccc(F)c(C(=O)c2c[nH]c3ncc(-c4ccc(Cl)cc4)cc23)c1F + CC(Nc1ncnc2nc[nH]c12)c1cc2cccc(Cl)c2c(=O)n1-c1ccccc1
- IC50 [1]: 5.06 µM
- IC50 [2]: 5.5 µM
- IC50 [3]: 5.32 µM
- IC50 [4]: 4.9 µM
- IC50 (curve of first compound, second compound 3.16 µM): 4.83 µM
- IC50 (curve of first compound, second compound 10 µM): 4.09 µM
- viability, T/C (second compound 0.0316 µM, first compound 0.0316 µM): 101%
- viability, T/C (second compound 0.0316 µM, first compound 0.1 µM): 93.7%
- viability, T/C (second compound 0.0316 µM, first compound 0.316 µM): 109%
- viability, T/C (second compound 0.0316 µM, first compound 1 µM): 92.9%
- viability, T/C (second compound 0.0316 µM, first compound 3.16 µM): 78.7%
- viability, T/C (second compound 0.0316 µM, first compound 10 µM): 8.82%
- viability, T/C (second compound 0.1 µM, first compound 0.0316 µM): 99.6%
- viability, T/C (second compound 0.1 µM, first compound 0.1 µM): 92.9%
- viability, T/C (second compound 0.1 µM, first compound 0.316 µM): 109%
- viability, T/C (second compound 0.1 µM, first compound 1 µM): 91.9%
- viability, T/C (second compound 0.1 µM, first compound 3.16 µM): 88.6%
- viability, T/C (second compound 0.1 µM, first compound 10 µM): 8.07%
- viability, T/C (second compound 0.316 µM, first compound 0.0316 µM): 98.8%
- viability, T/C (second compound 0.316 µM, first compound 0.1 µM): 84%
- viability, T/C (second compound 0.316 µM, first compound 0.316 µM): 82.7%
- viability, T/C (second compound 0.316 µM, first compound 1 µM): 90.4%
- viability, T/C (second compound 0.316 µM, first compound 3.16 µM): 83.1%
- viability, T/C (second compound 0.316 µM, first compound 10 µM): 9.77%
- viability, T/C (second compound 1 µM, first compound 0.0316 µM): 89.2%
- viability, T/C (second compound 1 µM, first compound 0.1 µM): 90.2%
- viability, T/C (second compound 1 µM, first compound 0.316 µM): 95.6%
- viability, T/C (second compound 1 µM, first compound 1 µM): 104%
- viability, T/C (second compound 1 µM, first compound 3.16 µM): 76.5%
- viability, T/C (second compound 1 µM, first compound 10 µM): 7.1%
- viability, T/C (second compound 3.16 µM, first compound 0.0316 µM): 86.7%
- viability, T/C (second compound 3.16 µM, first compound 0.1 µM): 87.5%
- viability, T/C (second compound 3.16 µM, first compound 0.316 µM): 88.4%
- viability, T/C (second compound 3.16 µM, first compound 1 µM): 91.5%
- viability, T/C (second compound 3.16 µM, first compound 3.16 µM): 72.7%
- viability, T/C (second compound 3.16 µM, first compound 10 µM): 11.2%
- viability, T/C (second compound 10 µM, first compound 0.0316 µM): 71.7%
- viability, T/C (second compound 10 µM, first compound 0.1 µM): 73.2%
- viability, T/C (second compound 10 µM, first compound 0.316 µM): 68.4%
- viability, T/C (second compound 10 µM, first compound 1 µM): 65%
- viability, T/C (second compound 10 µM, first compound 3.16 µM): 62.3%
- viability, T/C (second compound 10 µM, first compound 10 µM): 10.3%

Compound: CC(=O)c1c(C)c2cnc(Nc3ccc(N4CCNCC4)cn3)nc2n(C2CCCC2)c1=O
- viability, T/C (compound 0.000316 µM): 95.4% [middle of 4 runs]
- viability, T/C (compound 0.001 µM): 95.7% [middle of 4 runs]
- viability, T/C (compound 0.00316 µM): 93.9% and 100% (2×) and 83.1%
- viability, T/C (compound 0.01 µM): 97.5% [middle of 4 runs]
- viability, T/C (compound 0.0316 µM): 87.3% [middle of 4 runs]
- viability, T/C (compound 0.1 µM): 95.2% [middle of 4 runs]
- IC50 (curve of compound): > 0.1 µM
